According to ChEMBL document CHEMBL1201862, “PubChem BioAssay data set” (2004):
Counter-ions that a name gives are not always drawn.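 Five compound concentrations were applied to cells in 96-well plates for 48 hours; endpoints were derived by simple linear interpolation of the resulting dose-response curve. Abbreviation: GI50, concentration required for 50% inhibition of growth.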 Activity calls are given as the source filed them. No stated cut-off is given here; in the data, active = GI50 up to about 1.1 µM and inactive = higher.

Key:
Assay in all cases: NCI tumour cell line growth inhibition, 48 h
DMS-114 = tested on: DMS-114
DMS-273 = tested on: DMS-273
HOP-18 = tested on: HOP-18
KM-20L2 = tested on: KM-20L2
LXFL 529 = tested on: LXFL 529
M19-MEL = tested on: M19-MEL
SNB-78 = tested on: SNB-78
XF498 = tested on: XF498
RXF 631 = tested on: RXF 631

Measured: GI50

COc1cc(C=C2C(=O)NC(=O)NC2=O)cc(OC)c1OC
inactive: DMS-114 > 100 µM | DMS-273 > 100 µM | HOP-18 > 100 µM | KM-20L2 > 100 µM | LXFL 529 > 100 µM | M19-MEL > 100 µM | SNB-78 > 100 µM | XF498 > 100 µM

CNC(=O)CN(CC(N)=O)C(N)=O
inactive: DMS-273 > 100 µM | KM-20L2 > 100 µM | LXFL 529 > 100 µM | M19-MEL > 100 µM | RXF 631 > 100 µM | SNB-78 > 100 µM | XF498 > 100 µM

CCOC(=O)C12CN(C34CC5CC(CC(C5)C3)C4)CC(C(=O)OCC)(C1=O)C(c1ccccc1)OC2c1ccccc1 (stereo not drawn)
inactive: DMS-114 52.2 µM | DMS-273 > 100 µM | KM-20L2 > 100 µM | LXFL 529 31.3 µM | M19-MEL > 100 µM | SNB-78 > 100 µM | XF498 > 100 µM

O=C1C(CN2CCOCC2)CCCC1CN1CCOCC1 (stereo not drawn)
inactive: DMS-114 5.61 µM | DMS-273 8.11 µM | HOP-18 1.81 µM | KM-20L2 6.43 µM | LXFL 529 1.53 µM | M19-MEL 7.11 µM | RXF 631 10.5 µM | SNB-78 2.35 µM

CN(C)CCCN1CCc2c([nH]c3ccccc23)C1c1cccnc1 (stereo not drawn)
inactive: DMS-114 > 100 µM | DMS-273 > 100 µM | KM-20L2 > 100 µM | LXFL 529 > 100 µM | M19-MEL > 100 µM | RXF 631 > 100 µM | SNB-78 > 100 µM | XF498 > 100 µM

NC(=S)N1N=C2c3ccccc3CC[C@@H]2[C@@H]1c1ccccc1
inactive: DMS-114 2.45 µM | DMS-273 2.19 µM | HOP-18 20.8 µM | KM-20L2 4.22 µM | LXFL 529 8.18 µM | M19-MEL 4.97 µM | RXF 631 7.85 µM | SNB-78 28.1 µM

CCCCN(CCCC)C(=Nc1ccccc1)N(CCCC)CCCC
inactive: DMS-114 1.59 µM | DMS-273 4.61 µM | HOP-18 1.76 µM | LXFL 529 5.36 µM | M19-MEL 8.39 µM | RXF 631 10.5 µM | SNB-78 11.1 µM | XF498 2.05 µM
active: KM-20L2 0.851 µM

Cc1c(-c2coc(-c3ccc([N+](=O)[O-])cc3)n2)c(=O)n(-c2ccccc2)n1C
inactive: DMS-114 > 100 µM | DMS-273 > 100 µM | KM-20L2 > 100 µM | LXFL 529 > 100 µM | M19-MEL > 100 µM | SNB-78 > 100 µM

NS(=O)(=O)c1ccccc1C(=O)N/N=C(\c1nc2ccc([N+](=O)[O-])cc2[nH]c1=O)C(O)c1ccc([N+](=O)[O-])cc1 (stereo not drawn)
inactive: HOP-18 > 100 µM | KM-20L2 46.2 µM | LXFL 529 > 100 µM | M19-MEL > 100 µM | XF498 > 100 µM

O=C(c1ccccc1)C1S(=O)(=O)OCCOS1(=O)=O
inactive: DMS-114 > 100 µM | DMS-273 > 100 µM | LXFL 529 > 100 µM | M19-MEL > 100 µM | RXF 631 > 100 µM | SNB-78 > 100 µM | XF498 > 100 µM

Cc1ccc(NC(=O)OCC(COc2ccc(Cl)cc2Cl)OC(=O)Nc2ccc(C)cc2)cc1 (stereo not drawn)
inactive: DMS-114 > 100 µM | DMS-273 > 100 µM | HOP-18 69.5 µM | KM-20L2 > 100 µM | LXFL 529 81.5 µM | M19-MEL > 100 µM | SNB-78 > 100 µM

CC(=O)OCCOCBr
inactive: DMS-114 > 100 µM | DMS-273 > 100 µM | HOP-18 > 100 µM | KM-20L2 > 100 µM | LXFL 529 > 100 µM | M19-MEL > 100 µM | RXF 631 > 100 µM | XF498 > 100 µM

CCOC(=O)CC(=O)Sc1ccccc1
inactive: DMS-114 14.4 µM | DMS-273 20.7 µM | HOP-18 > 100 µM | KM-20L2 21.2 µM | M19-MEL 17.9 µM | XF498 34.4 µM

COc1ccccc1NC(=O)CC(=O)n1nc(C)c(/N=N/c2ccccc2C(=O)O)c1C
inactive: DMS-114 > 100 µM | DMS-273 > 100 µM | KM-20L2 > 100 µM | LXFL 529 > 100 µM | M19-MEL > 100 µM | SNB-78 > 100 µM | XF498 > 100 µM

O=C1C2c3[nH]c4ccccc4c3C3CCCCCCC3C2C(=O)N1c1ccccc1 (stereo not drawn)
inactive: DMS-114 4.71 µM | DMS-273 11.1 µM | LXFL 529 12.9 µM | M19-MEL 10.9 µM | RXF 631 4.71 µM | SNB-78 13.2 µM | XF498 1.92 µM

CC(=O)OCCC(O[Si](c1ccccc1)(c1ccccc1)C(C)(C)C)C(C)(C)O (stereo not drawn)
inactive: DMS-114 19.9 µM | DMS-273 27 µM | HOP-18 25.2 µM | KM-20L2 32.3 µM | LXFL 529 42.7 µM | M19-MEL 23.1 µM | RXF 631 34.3 µM | SNB-78 59.4 µM | XF498 29.4 µM

O=C1C2C=CC(n3[nH]c(=O)n(Cc4ccccc4)c3=O)CC2C(=O)N1c1ccc(Br)cc1 (stereo not drawn)
inactive: DMS-114 > 100 µM | DMS-273 > 100 µM | HOP-18 > 100 µM | KM-20L2 > 100 µM | LXFL 529 > 100 µM | M19-MEL > 100 µM | SNB-78 > 100 µM

CCCCCOCC(O)CO (stereo not drawn)
inactive: DMS-114 > 100 µM | DMS-273 > 100 µM | HOP-18 > 100 µM | KM-20L2 > 100 µM | SNB-78 > 100 µM | XF498 44.6 µM

COC(=O)/C=C/c1c(CC=C(C)C)ncn1C
inactive: DMS-114 5.38 µM | DMS-273 8.38 µM | HOP-18 > 100 µM | KM-20L2 16.7 µM | LXFL 529 55.1 µM | M19-MEL 18.8 µM | RXF 631 59 µM | SNB-78 53.2 µM | XF498 41.3 µM

O=C(CC1(O)C(=O)Nc2ccccc21)c1ccc(Cl)cc1Cl (stereo not drawn)
inactive: DMS-114 > 100 µM | DMS-273 > 100 µM | KM-20L2 > 100 µM | LXFL 529 > 100 µM | M19-MEL > 100 µM | RXF 631 > 100 µM | SNB-78 > 100 µM | XF498 > 100 µM

COC(=O)c1nc(NC#N)nc(O)c1C
inactive: DMS-114 > 100 µM | DMS-273 > 69.3 µM | HOP-18 > 100 µM | KM-20L2 > 100 µM | LXFL 529 > 64.9 µM | M19-MEL > 100 µM | RXF 631 > 100 µM | SNB-78 > 60.5 µM

C=C(CN(C)C)C(=O)c1ccccc1Cl
inactive: DMS-114 15.9 µM | DMS-273 19.6 µM | HOP-18 19.5 µM | KM-20L2 30.1 µM | LXFL 529 12.5 µM | M19-MEL 18.3 µM | RXF 631 21.2 µM | SNB-78 30.4 µM

O=C(Nc1ccccc1-c1nn(C(=S)Nc2ccccc2)c(=S)n(C(=S)Nc2ccccc2)c1=O)C(F)(F)F
inactive: DMS-114 9.38 µM | DMS-273 27.4 µM | HOP-18 30.1 µM | KM-20L2 36.2 µM | LXFL 529 17.1 µM | M19-MEL 28.2 µM | SNB-78 35.4 µM | XF498 23.1 µM

O=C1C2CCC(C2)C12CC1(c3ccccc3)C(=O)c3ccccc3N1O2 (stereo not drawn)
inactive: DMS-114 > 100 µM | DMS-273 81.8 µM | HOP-18 > 100 µM | KM-20L2 > 100 µM | LXFL 529 > 100 µM | M19-MEL > 100 µM | SNB-78 > 100 µM | XF498 > 100 µM

O=c1[nH]c(=O)n(C2OC(CO)C(O)C2O)cc1OCC(F)(F)F (stereo not drawn)
inactive: DMS-114 > 100 µM | DMS-273 > 100 µM | HOP-18 > 100 µM | KM-20L2 > 100 µM | LXFL 529 > 100 µM | M19-MEL > 100 µM | SNB-78 > 100 µM | XF498 > 100 µM

C[C@@H](NC1CCCC[C@@H]1O)c1ccccc1 (stereo partly drawn)
inactive: DMS-273 > 100 µM | HOP-18 > 100 µM | KM-20L2 > 100 µM | LXFL 529 > 100 µM | M19-MEL > 100 µM | SNB-78 > 100 µM | XF498 > 100 µM

CC/C=C/c1cc2cc[nH]c2c2c1C(C)C[C@@H]2C (stereo partly drawn)
inactive: DMS-114 20.6 µM | DMS-273 > 10 µM | HOP-18 17.9 µM | LXFL 529 18.3 µM | M19-MEL 27.5 µM | SNB-78 24.9 µM

CC(=O)OC(C[C@H](C)[C@@H]1CC[C@]2(C)C3=CCC4C(C)(C)C(=O)CC[C@]4(C)C3CCC12C)C1OC1(C)C (stereo partly drawn)
inactive: DMS-114 32.5 µM | DMS-273 17.1 µM | HOP-18 > 100 µM | KM-20L2 25.5 µM | LXFL 529 22.4 µM | M19-MEL 31.2 µM | XF498 18.5 µM

N[C@@H](Cc1ccc(N(CCCl)CCCl)cc1)C(=O)O [MELPHALAN HYDROCHLORIDE]
inactive: DMS-114 20.2 µM | DMS-273 9.71 µM | KM-20L2 76.2 µM | LXFL 529 49.3 µM | M19-MEL 39.6 µM | SNB-78 55.5 µM
